Reference: paper PMC10235848, “Novel N′-substituted benzylidene benzohydrazides linked to 1,2,3-triazoles: potent α-glucosidase inhibitors” (Scientific Reports, 2023)
Each block holds one compound with its values, some of them ahead of it.

Columns and labels:
α-glucosidase [1] = biological target: T1, α-glucosidase (Saccharomyces cerevisiae, UniProt P53341); settings: cited from earlier work
α-glucosidase [2] = biological target: T1, α-glucosidase; test: Fluorescence quenching spectroscopy; assay type: binding; design: ΔS: unit not given here; settings: for Kq quenching rate constant / n binding sites: 25 °C; for ΔS: standard thermodynamic values from KA
Method: Fluorescence spectrometry was used for studying the interactions between selected α-glucosidase inhibitors (7a, 7d, and 7h) and the enzyme at 25 °C and pH 6.8 to determine the binding constants, number of binding sites, and thermodynamic parameters of the corresponding interactions. Herein, the maximum fluorescence intensity of α-glucosidase was obtained at 340 nm, which can be attributed to tryptophan, tyrosine, and phenylalanine residues that can act as intrinsic fluorescence probes with excitation at 280 nm.
The fluorescence measurements were performed on a Synergy HTX multi-mode reader (Biotek Instruments, Winooski, VT, USA) equipped with a quartz cuvette of 10 mm. The excitation wavelength was 280 nm and the emission spectra were measured in the range from 300 to 440 nm with 10 accumulations for each collection point. The emission spectrum was corrected for the background fluorescence from the buffer solution and for the inner filter effect promoted by the inhibitors. The protein-inhibitors interaction measurements were performed by collecting the fluorescence.
The fluorescence quenching of the protein (P) by a drug or inhibitor (D) was analyzed by Stern−Volmer equation (Eq. 1), where F0 and F are the fluorescence intensity in the absence and presence of a quencher (inhibitor), respectively. [D] is the concentration of inhibitor, Kq is the quenching rate constant, τ0 is the average life-time of the molecule without the quencher (10^−8 s), and KSV is the Stern−Volmer dynamic quenching constant.1 F0/F=1+Kqτ0D=1+KSVD
The reaction of the protein (P) and a drug molecule or inhibitor (D) was considered as Eq. 2, where P is the protein, D is the drug molecule, and DnP is the new complex molecule with the binding constant of KA.2 P+D→DnP
As the number of the binding site of protein and drug is respectively n and 1, the equivalent concentration of the complex DnP is n[DnP]; the equivalent concentration of the protein is n[P] and the equivalent concentration of the drug is [D]. In this respect, the KA value is calculated based on the Eq. (3).3 KA=nDnP/DnP
If the total concentration of protein is [Pt] and the total concentration of the drug is [Dt]: [Pt] = [Pf] + [DnP] and [Df] = [Dt] − n[DnP].
If protein (P) is the only fluorescence in the reaction system, thus:4 F0/F=Pt/Pf where F and F0 are the fluorescence intensity of protein in the presence and absence of drug D, respectively. Therefore, the relationship between the fluorescence intensity and the drug total concentration can be deduced from Eq. (5).5 F0/F=KADtF0/F0-F-nKAPt
Keeping the total concentration of protein at a definite value and varying the total concentration of the drug leads to obtaining the plot of F0/F as a function of [Dt] F0/(F0 − F) following with the calculation of KA.
The standard thermodynamic values were calculated according to Eqs. (6), (7), where ΔH, ΔG, and ΔS are enthalpy, free energy, and entropy changes, respectively. In the case of small changes in temperature, the enthalpy change can be considered as a constant and ΔH is calculated from Eq. (6) following with the calculation of ΔG and ΔS from Eq. (7).6 lnKA2/KA1=1/T1-1/T2ΔH/R 7 ΔG=-RTlnKA=ΔH-TΔS

α-glucosidase [3] = biological target: T1, α-glucosidase; test: Fluorescence quenching spectroscopy; assay type: binding; settings: 35 °C
HEK293 cell line = settings: no reference given; cited from earlier work

T1 sequence (P53341 whole entry): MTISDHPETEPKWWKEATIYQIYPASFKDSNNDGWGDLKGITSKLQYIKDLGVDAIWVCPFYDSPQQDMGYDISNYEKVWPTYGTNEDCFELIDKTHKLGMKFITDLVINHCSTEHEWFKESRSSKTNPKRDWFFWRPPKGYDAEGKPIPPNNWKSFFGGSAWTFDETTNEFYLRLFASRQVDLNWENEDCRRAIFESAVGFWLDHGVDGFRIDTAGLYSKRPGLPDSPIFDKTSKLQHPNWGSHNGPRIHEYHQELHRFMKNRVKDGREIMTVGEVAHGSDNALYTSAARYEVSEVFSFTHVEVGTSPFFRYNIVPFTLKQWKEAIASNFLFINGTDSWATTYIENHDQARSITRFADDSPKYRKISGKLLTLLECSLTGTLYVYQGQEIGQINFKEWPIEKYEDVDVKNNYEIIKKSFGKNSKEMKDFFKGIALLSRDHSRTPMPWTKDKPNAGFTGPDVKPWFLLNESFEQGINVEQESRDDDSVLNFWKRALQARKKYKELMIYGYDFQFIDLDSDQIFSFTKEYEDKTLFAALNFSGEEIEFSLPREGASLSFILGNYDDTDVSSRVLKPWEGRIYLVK

SMILES: O=c1oc2ccccc2c(O)c1C(c1ccc(OCc2cn(Cc3ccccc3Cl)nn2)cc1)c1c(O)c2ccccc2oc1=O [A]
IC50 (α-glucosidase [1]): 13 ± 1.5 µM
mode of inhibition (α-glucosidase [1]): competitive

SMILES: O=C1Nc2ccccc2/C1=N/N=C/c1ccc(OCc2cn(Cc3ccccc3F)nn2)cc1 [C]
IC50 (α-glucosidase [1]): 16.43 ± 0.01 µM
mode of inhibition (α-glucosidase [1]): competitively

SMILES: O=C(NN=Cc1ccccc1)c1ccc(OCc2cn(Cc3ccccc3)nn2)cc1 [Compound 7a, 4-((1-Benzyl-1H-1,2,3-triazol-4-yl)methoxy)-N′-benzylidenebenzohydrazide]
Kq quenching rate constant (α-glucosidase [2]): 1.5e+15 M⁻¹ s⁻¹
n binding sites (α-glucosidase [2]): 0.8
ΔS (α-glucosidase [2]): 48.37
Kq quenching rate constant (α-glucosidase [3]): 9e+15 M⁻¹ s⁻¹

SMILES: O=C(NN=Cc1ccccc1)c1ccc(OCc2cn(Cc3ccc(F)cc3)nn2)cc1 [Compound 7b, N′-Benzylidene-4-((1-(4-fluorobenzyl)-1H-1,2,3-triazol-4-yl)methoxy)benzohydrazide]
melting point: 160 to 163 °C

SMILES: O=C(NN=Cc1ccccc1)c1ccc(OCc2cn(Cc3ccccc3Cl)nn2)cc1 [Compound 7c, N′-Benzylidene-4-((1-(2-chlorobenzyl)-1H-1,2,3-triazol-4-yl)methoxy)benzohydrazide]
melting point: 203 to 207 °C

SMILES: Cc1ccc(Cn2cc(COc3ccc(C(=O)NN=Cc4ccccc4)cc3)nn2)cc1 [Compound 7d, N′-Benzylidene-4-((1-(4-methylbenzyl)-1H-1,2,3-triazol-4-yl)methoxy)benzohydrazide]
Kq quenching rate constant (α-glucosidase [2]): 4.2e+15 M⁻¹ s⁻¹
n binding sites (α-glucosidase [2]): 0.1
ΔS (α-glucosidase [2]): 146.0
Kq quenching rate constant (α-glucosidase [3]): 1e+15 M⁻¹ s⁻¹
melting point: 154 to 156 °C

SMILES: O=C(NN=Cc1ccc([N+](=O)[O-])cc1)c1ccc(OCc2cn(Cc3ccc(F)cc3)nn2)cc1 [Compound 7f, 4-((1-(4-Fluorobenzyl)-1H-1,2,3-triazol-4-yl)methoxy)-N′-(4-nitrobenzylidene)benzohydrazide]
melting point: 202 to 205 °C

SMILES: O=C(NN=Cc1ccc([N+](=O)[O-])cc1)c1ccc(OCc2cn(Cc3ccccc3Cl)nn2)cc1 [Compound 7g, 4-((1-(2-Chlorobenzyl)-1H-1,2,3-triazol-4-yl)methoxy)-N′-(4-nitrobenzylidene)benzohydrazide]
melting point: 204 to 206 °C

SMILES: Cc1ccc(Cn2cc(COc3ccc(C(=O)NN=Cc4ccc([N+](=O)[O-])cc4)cc3)nn2)cc1 [Compound 7h, 4-((1-(4-Methylbenzyl)-1H-1,2,3-triazol-4-yl)methoxy)-N′-(4-nitrobenzylidene)benzohydrazide]
Kq quenching rate constant (α-glucosidase [2]): 1e+15 M⁻¹ s⁻¹
n binding sites (α-glucosidase [2]): 0.06
ΔS (α-glucosidase [2]): 71.1
Kq quenching rate constant (α-glucosidase [3]): 6.8e+15 M⁻¹ s⁻¹
melting point: 247 to 250 °C

SMILES: COc1ccc(C=NNC(=O)c2ccc(OCc3cn(Cc4ccccc4Cl)nn3)cc2)cc1 [Compound 7o, 4-((1-(2-Chlorobenzyl)-1H-1,2,3-triazol-4-yl)methoxy)-N′-(4-methoxybenzylidene)benzohydrazide]
melting point: 222 to 225 °C

SMILES: COc1ccc(C=NNC(=O)c2ccc(OCc3cn(Cc4ccc(C)cc4)nn3)cc2)cc1 [Compound 7p, N′-(4-Methoxybenzylidene)-4-((1-(4-methylbenzyl)-1H-1,2,3-triazol-4-yl)methoxy)benzohydrazide]
melting point: 224 to 228 °C

SMILES: CCc1ccc(NC(=O)Cn2cc(COc3ccc(-c4nc5ccccc5[nH]4)cc3)nn2)cc1 [Compound B]
IC50 (α-glucosidase [1]): 25.2 ± 0.9 µM

SMILES: COC(=O)c1c(C)cc(OC(=O)c2c(C)cc(O)c(/C=N/NC(=O)Cc3ccccc3)c2O)c(C)c1O [E]
toxicity on the HEK293 cell line (HEK293 cell line): without toxicity

The remaining lines, values ahead:

melting point: 193 to 196 °C
SMILES: O=C(NN=Cc1ccc([N+](=O)[O-])cc1)c1ccc(OCc2cn(Cc3ccccc3)nn2)cc1 [Compound 7e, 4-((1-Benzyl-1H-1,2,3-triazol-4-yl)methoxy)-N′-(4-nitrobenzylidene)benzohydrazide]

melting point: 211 to 214 °C
SMILES: O=C(NN=Cc1ccc(Cl)cc1)c1ccc(OCc2cn(Cc3ccccc3)nn2)cc1 [Compound 7i, 4-((1-Benzyl-1H-1,2,3-triazol-4-yl)methoxy)-N′-(4-chlorobenzylidene)benzohydrazide]

melting point: 236 to 238 °C
SMILES: O=C(NN=Cc1ccc(Cl)cc1)c1ccc(OCc2cn(Cc3ccc(F)cc3)nn2)cc1 [Compound 7j, N′-(4-Chlorobenzylidene)-4-((1-(4-fluorobenzyl)-1H-1,2,3-triazol-4-yl)methoxy)benzohydrazide]

melting point: 246 to 248 °C
SMILES: O=C(NN=Cc1ccc(Cl)cc1)c1ccc(OCc2cn(Cc3ccccc3Cl)nn2)cc1 [Compound 7k, 4-((1-(2-Chlorobenzyl)-1H-1,2,3-triazol-4-yl)methoxy)-N′-(4-chlorobenzylidene)benzohydrazide]

melting point: 216 to 218 °C
SMILES: Cc1ccc(Cn2cc(COc3ccc(C(=O)NN=Cc4ccc(Cl)cc4)cc3)nn2)cc1 [Compound 7l, N′-(4-Chlorobenzylidene)-4-((1-(4-methylbenzyl)-1H-1,2,3-triazol-4-yl)methoxy)benzohydrazide]

melting point: 237 to 240 °C
SMILES: COc1ccc(C=NNC(=O)c2ccc(OCc3cn(Cc4ccccc4)nn3)cc2)cc1 [Compound 7m, 4-((1-Benzyl-1H-1,2,3-triazol-4-yl)methoxy)-N′-(4-methoxybenzylidene)benzohydrazide]
